Patent publication US5643907A, “Pharmaceutical composition containing 5-morpholinomethyl-3-(4-chlorobenzylideneamine)-2-oxazolidinone and its use for the treatment of CNS disorders” (priority 1993, dated 1997)
Where a name gives a salt, the structure may show the parent alone.

Assays:
[1] = tested on: mice in the conditions of hypoxia; assay: Effect on the time of survival in the conditions of hypoxia; format: in vivo, mouse; settings: for The number of mice surviving in the conditions of hypoxia: surviving/complete number
Protocol: The examined preparation was applied i.o. in the dosages 5, 10, 50, 75, 100 mg/kg 60 minutes before the beginning of the experiment. The experiment lasted until 0-3 animals survived in the control group. Subsequently oxygen was let in and finally normal air. The number of animals which survived in the control group was compared to the number of animals in the group administered the examined preparation. The number of surviving mice is presented in relation to the complete number of examined mice.

[2] = tested on: uptake of noradrenaline; assay: Effect on the uptake of noradrenaline in vivo (protection from 6-OHDA); set-up: species or system rat; settings: for Concentration of noradrenaline in the brain X ± SEM: control 205 ± 10, 5
Protocol: The point of reference for measuring the inhibiting effect on the uptake of noradrenaline was the protection from the effect of 6-hydroxydopamine (6-OHDA), which was administered intraventricularly. Rats were applied intraventricularly 250 μg of 6-OHDA in the volume of 20 μl of 0,9% solution of […] and 0,1% solution of ascorbic acid. […] The animals were decapitated 7 days after and the level of noradrenaline in the whole brain was measured by the division on the Sephadex G-10 column and fluorimetric assay following oxidation.

[3] = tested on: rats behaviour; assay: Influence on the rats behaviour in "despair test" (Porsolt), immobility period; format: in vivo, rat; settings: for The immobility period, % of control: twice
Protocol: 1) The influence on the rats behaviour in "despair test".
The rats were placed separately in upright, metallic cylindrical containers, 60 cm high and 18 cm in diameter, containing 15 centimeters of water, at a temperature of 25° C. […] After 24 hours the rats were dived in water again and for 5 minutes the complete immobility period was measured. The examined preparation (containing 5-morpholinomethyl-3-(4-chlorobenzylideneamine)-2-oxazolidinone hydrochloride) or imipramine (IMI) was administered per os twice: at 24 hours and one hour before the beginning of the observation.

[4] = tested on: uptake of serotonin; settings: 200 mg/kg before p-CA; control 353 ± 117, 7
[5] = tested on: uptake of serotonin; assay: Effect on the uptake of serotonin in vivo (protection from p-chloramphetamine)
[6] = tested on: reserpine pretreated mice; assay: Intensification of L-Dopa effects in reserpine pretreated mice; format: in vivo, mouse
Protocol: 2) The intensification of L-Dopa effects in reserpine pretreated mice.
The examined preparation was administered to mice p.o. in the dosages of 40 and 200 mg/kg 17 hours after reserpine in the dosage of 2,5 mg/kg had been administered intraperitoneally. After one hour L-dopa was injected in the dosage of 300 mg/kg. The intensification of L-dopa anti-reserpine action was evaluated according to the following parameters of the animals behaviour: mobility, irritability, ptosis and body temperature. According to the same empirical system IMI was examined in the dosages of 8 and 40 mg/kg.

[7] = tested on: beta-adrenergic receptor; assay: Influence of chronic administration on concentration of beta-adrenergic cerebral receptors in vivo (3H-dihydroalprenolol bonding to cerebral cortex membranes); set-up: species or system rat
Protocol: Rats were administered the examined preparation in the form of intraperitoneally injection and the dosage of 200 mg/kg twice daily for six weeks. In the same empirical system IMI was examined in the dosage of 10 mg/kg. The animals were killed 24 hours after the last injection and their cerebral cortexes were skeletonized.
The population of the beta-adrenergic receptor was characterised by the examination of the parameters of the ^3 H-dihydroalprenolol (^3 H-DHA) bonding to the membranes (fractiom P2) of the cerebral cortex. The tissue was homogenised in 20 volumes of the 50 mM buffer TRIS-HCl, pH 7,6 in the Polytron disintegrator (position 4,155) and centrifuged at 1000 g for 10 minutes. The supernatant was decanted and again centrifuged at 25000 for 20 minutes. The operations were conducted in the temperature of 0°-4° C. The precipitate, after the second centrifugation, decanting and removing the supernatant, was kept in the temperature of -18° C. until the time of incubation (no longer than 48 hours). The final fraction P2 was obtained by the subsequent process of the sediment homogenisation in such a volume of 50 mM buffer TRIS-HCl, pH 7,6, that the final concentration of protein amounted to 1,5 mg/ml.
The incubation mixture, containing 450 μl of the fraction P2 suspension, 50 μl of the ^3 H-DHA solution (6 different solutions; the final concentrations in the mixture […]) and 50 μl of buffer or propranolol solution (the final concentration in the sample […]) was incubated for 30 minutes in the temperature of 25° C. The incubation was finished by filtrating the suspension through filters made of glass fibres. The filters were twice rinsed with 5 ml of cold (0° C.) buffer TRIS-HCl, pH 7,6, and placed in scintillation minivessels, to which Bray's liquid was added. The radioactivity was measured by the Packard scintillation counter, model B329 with the efficiency of 36-37%.
The specific bonding was defined as the radioactivity difference between the samples incubated in the absence of propranolol (complete bonding) and in the presence of 10 μM of propranolol (blank). The data from the counter […] were recalculated individually into the decay frequence […], calculating it from the individual efficiency of each sample, received from the relation of impulses in the canals A and B. Bmax value and the constant of dissociation KD was calculated from the Scatchard diagrams, which were rectilinear.

[8] = tested on: process of learning and memorising; assay: Effect on the process of learning and memorising (conditioned jump on a bar); format: in vivo, rat
[9] = tested on: mice premedicated with pargyline; assay: Intensification of L-dopa effects in mice premedicated with pargyline; format: in vivo, mouse; settings: for Reaction of mice according to score: L-dopa 200 mg/kg i.p. after pargyline, control 1-2
Protocol: 3) The intensification of L-dopa effects in mice premedicated with pargyline.
Three hours after the oral administration of pargyline in the dosage of 40 mg/kg, there was applied orally either the examined preparation or IMI, followed after one hour by L-dopa administered intraperitoneally in the dosage of 200 mg/kg. The behaviour of the mice was evaluated according to the following 5-level score:
1 - piloerection, Straub's tail, exophtalmos of eyes, minute salivating, irritability.
2 - as above + translocations, single jumps.
3 - as above + bigger incitement of mobility, frequent jumps, climbing, single squeaks.
4 - as above + great incitement of mobility, aggresion, fights.
5 - as above + maximum incitement of mobility and aggresion

[10] = 100 mg/kg, controls: Examined 9/60 (p <0, 01), Piracetam 7/40 (n.d.), Pyritinol 8/60 (p <0, 01)
[11] = 200 mg/kg daily dosage, chronic
[12] = mice premedicated with pargyline
[13] = 10 mg/kg chronic administration, six weeks

## NC(=O)CN1CCCC1=O [Piracetam, piracetam, reference compound]
[1]; [10]
  The number of mice surviving in the conditions of hypoxia: 6/40
[1]; 300 mg/kg, control 6/60, p <0, 05
  The number of mice surviving in the conditions of hypoxia: 18/60

## NCCc1cc(O)c(O)cc1O [6-OHDA, 6-hydroxydopamine, reference compound]
[2]; 6-OHDA administered intraventricularly
  decline of the noradrenalin content in the cerebrum: over 50%
[2]; 6-OHDA alone (reference group), control 216
  noradrenaline, % in relation to the group after chemosympathectomy: 100%

## Cc1ncc(CSSCc2cnc(C)c(O)c2CO)c(CO)c1O [Pyritinol, pyritinol, reference compound]
[1]; [10]
  The number of mice surviving in the conditions of hypoxia: 30/60

## O=C1OC(CN2CCOCC2)CN1N=Cc1ccc(Cl)cc1 (centres unmarked) [Examined preparation, 5-morpholinomethyl-3-(4-chlorobenzylideneamine)-2-oxazolidinone hydrochloride]
[3]; 40 mg/kg p.o.
  The immobility period, % of control: 89%
[3]; 200 mg/kg
  effect on immobility compared with IMI (20 mg/kg): equals approximately to the effect of IMI (20 mg/kg)
  shortened the rats' immobility period in relation to the control group: 18%
[3]; 200 mg/kg p.o.
  The immobility period, % of control: 82%
[1]; 5 mg/kg, control 7/40, p n.d.
  The number of mice surviving in the conditions of hypoxia: 5/40
[1]; 10 mg/kg, control 5/40, p n.d.
  The number of mice surviving in the conditions of hypoxia: 6/40
[1]; 50 mg/kg, control 9/60, p <0, 01
  The number of mice surviving in the conditions of hypoxia: 23/60
[1]; 75 mg/kg, control 9/60, p <0, 01
  The number of mice surviving in the conditions of hypoxia: 28/60
[1]; [10]
  The number of mice surviving in the conditions of hypoxia: 47/60
[1]; in comparison to piracetam and pyritinol
  time of mice survival in the conditions of hypoxia: prolongs the time of mice survival in the conditions of hypoxia
[4]
  Concentration of serotonin in the brain X ± SEM: 367 ± 30, 1 mg/kg tissue
[5]; 40 mg/kg before p-CA
  serotonin, % in relation to the group after p-chloramphetamine: 107%
[5]; 200 mg/kg before p-CA
  serotonin, % in relation to the group after p-chloramphetamine: 172%
[5]; high dosage
  prevention of the p-chloramphetamine effect: prevented the p-chloramphetamine effect completely
[5]; low dosage
  effect on the washing-out action of p-chloramphetamine: did not produce any effects on the washing-out action of p-chloramphetamine
[6]; 200 mg/kg, after 90 minutes
  irritability and incitement, second phase: there appeared irritability and big incitement, which lasted over an hour
[6]; 200 mg/kg, first hour after the application
  body posture (righting) reflex: loss of body posture (righting) reflex
[6]; 40 vs 200 mg/kg
  effectiveness of smaller versus bigger dosage: A smaller dosage proved to be more effective than a bigger one
[6]; reserpine pretreated mice + L-dopa
  effect on ptosis, hypothermy, mobility and irritability: reduced ptosis and hypothermy and raised the animals' mobility and irritability
[6]; reserpine pretreated mice, compared with IMI
  intensification of the behavioural effects of L-dopa: intensified the behavioural effects of L-dopa action in reserpine pretreated mice in the same way as IMI
[2]; 40 (mg/kg) before 6-OHDA
  noradrenaline, % in relation to the group after chemosympathectomy: 92%
[2]; 200 (mg/kg) before 6-OHDA
  noradrenaline, % in relation to the group after chemosympathectomy: 155%
  Concentration of noradrenaline in the brain X ± SEM: 148 ± 24, 9 mg/kg tissue
[2]; high dosages
  inhibiting the uptake of noradrenaline: proves effective in inhibiting the uptake of noradrenaline
[2]; higher dosage
  inhibition of the effect of 6-OHDA compared with IMI: inhibits it almost as effectively as IMI
[2]; low dosage
  prevention of the effect of 6-OHDA: does not prevent the effect of 6-OHDA completely
[7]; 40 mg/kg daily dosage, chronic
  Bmax, % of control: 67%
  KD, % of control: 63%
[7]; [11]
  Bmax, % of control: 72%
  KD, % of control: 68%
[7]; both dosages, chronic
  effect on the concentration of receptors, compared with imipramine: did not differ considerably
[7]; both dosages, chronic, as distinct from imipramine
  constant of dissociation value KD / beta-adrenergic receptor affinity: statistically considerable decline of the constant of dissociation value KD and consequently the increase of the beta-adrenergic receptor affinity
[8]; 5 mg/kg i.p. everyday
  process of learning: accelerates the process of learning
[8]; 5 mg/kg i.p. vs piracetam 100 mg/kg, pyritinol 100 mg/kg
  effect on learning compared with piracetam and pyritinol: weaker than the effect of piracetam, but stronger than the effect of pyritinol
[9]; 10 mg/kg p.o.
  Reaction of mice according to score: 5
[9]; 20 mg/kg p.o.
  Reaction of mice according to score: 5
[9]; 40 mg/kg p.o.
  Reaction of mice according to score: 5
[9]; 200 mg/kg p.o.
  Reaction of mice according to score: 3-4
[9]; after the dosages of 10, 20 and 40 mg/kg
  mobility and emotion incitement: strongest mobility and emotion incitement
[9]; [12]
  effectiveness compared with IMI: stronger effectiveness than IMI
  intensification of L-dopa effects: very strong intensification of L-dopa effects

## CN(C)CCCN1c2ccccc2CCc2ccccc21 [IMI, imipramine, reference compound]
[3]; 20 mg/kg p.o.
  The immobility period, % of control: 88%
[6]; 8 mg/kg + L-Dopa 300 mg/kg after reserpine
  Temper. 60' (body temperature): 34,3
[2]; 20 mg/kg before 6-OHDA
  noradrenaline, % in relation to the group after chemosympathectomy: 188%
  Concentration of noradrenaline in the brain X ± SEM: 179 ± 113, 5 mg/kg tissue
[7]; [13]
  Bmax, % of control: 60%
  KD, % of control: 129%
[9]; 4 mg/kg p.o.
  Reaction of mice according to score: 4
[9]; 40 mg/kg p.o.
  Reaction of mice according to score: 3-4

## CC(N)Cc1ccc(Cl)cc1 (centres unmarked) [p-CA, p-chloramphetamine, reference compound]
[5]; p-CA alone (reference group), control 169
  serotonin, % in relation to the group after p-chloramphetamine: 100%
[5]; p-chloramphetamine alone
  decline of the cerebral serotonine concentration: 40%
